Values joined by “and” are separate entries in the source; they are usually repeats but may differ in a detail not shown here. Equal values may be shown once.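 Test compounds were applied to cells in 96-well plates for 48 hours at 5 doses. GI50 is the concentration that inhibits growth by half.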 Active and inactive are the calls of the source. Cut-off read from the data, not from the text of the source: active = GI50 up to about 1.1 µM and inactive = higher.
What was measured:
Test in all cases: NCI tumour cell line growth inhibition, 48 h
[1] = test system: HL-60
[2] = test system: KM12
[3] = test system: TK-10
[4] = test system: UACC-257
[5] = test system: SNB-78
[6] = test system: SF-268
[7] = test system: SW-620
[8] = test system: SF-539
[9] = test system: A549
[10] = test system: MOLT-4
[11] = test system: SN12C
[12] = test system: SK-MEL-5
[13] = test system: IGROV-1
[14] = test system: DLD-1
[15] = test system: A498
[16] = test system: OVCAR-3
[17] = test system: SF-295
[18] = test system: HOP-18
[19] = test system: HCC 2998
[20] = test system: LXFL 529
[21] = test system: SK-MEL-28
[22] = test system: NCI-H23
[23] = test system: CCRF-CEM
[24] = test system: SNB-75
[25] = test system: SK-OV-3
[26] = test system: COLO 205
[27] = test system: HOP-92
[28] = test system: DMS-114
[29] = test system: M14
[30] = test system: OVCAR-8
[31] = test system: NCI-H522
[32] = test system: HCT-15
[33] = test system: NCI-H460
[34] = test system: KM-20L2
[35] = test system: SNB-19
[36] = test system: ACHN
[37] = test system: HT-29
[38] = test system: OVCAR-4
[39] = test system: HCT-116
[40] = test system: K562
[41] = test system: Malme-3M
[42] = test system: 786-0
[43] = test system: NCI-H226
[44] = test system: UACC-62
[45] = test system: OVCAR-5
[46] = test system: XF498
[47] = test system: SR
[48] = test system: M19-MEL
[49] = test system: CAKI-1
[50] = test system: U-251
[51] = test system: SK-MEL-2
[52] = test system: RXF 393
[53] = test system: HOP-62
[54] = test system: EKVX
[55] = test system: UO-31
[56] = test system: DMS-273
[57] = test system: RPMI-8226
[58] = test system: LOX IMVI
[59] = test system: RXF 631
[60] = test system: MCF7
[61] = test system: DU-145
[62] = test system: T47D
[63] = test system: NCI/ADR-RES
[64] = test system: BT-549
[65] = test system: MDA-N
[66] = test system: MDA-MB-231

Question: How did the GI50 [1] turn out when `CCCCCCCCCCSS(=O)(=O)c1ccc(C)cc1` was run?
Answer: 2.43 µM (inactive)

Question: And the GI50 [2]?
Answer: 9.64 µM (inactive)

Question: And the GI50 [3]?
Answer: 21 µM (inactive)

Question: And the GI50 [4]?
Answer: 8.28 µM (inactive)

Question: And the GI50 [5]?
Answer: 10.9 µM (inactive)

Question: And the GI50 [6]?
Answer: 6.12 µM (inactive)

Question: What about the GI50 [7] of the same compound?
Answer: 14.3 µM (inactive)

Question: And the GI50 [8]?
Answer: 1.87 µM (inactive)

Question: What about the GI50 [9] of the same compound?
Answer: 14.9 µM (inactive)

Question: And the GI50 [10]?
Answer: 2.03 µM (inactive)

Question: And the GI50 [11]?
Answer: 10.5 µM (inactive)

Question: What about the GI50 [12] of the same compound?
Answer: 5.36 µM (inactive)

Question: What about the GI50 [13] of the same compound?
Answer: 15.1 µM (inactive)

Question: And the GI50 [14]?
Answer: 12.5 µM (inactive)

Question: What about the GI50 [15] of the same compound?
Answer: 18.5 µM (inactive)

Question: And the GI50 [16]?
Answer: 18.6 µM (inactive)

Question: What about the GI50 [17] of the same compound?
Answer: 6.58 µM (inactive)

Question: What about the GI50 [18] of the same compound?
Answer: 17.9 µM (inactive)

Question: What about the GI50 [19] of the same compound?
Answer: 17.5 µM (inactive)

Question: And the GI50 [20]?
Answer: 13.6 µM (inactive)

Question: And the GI50 [21]?
Answer: 3.39 µM (inactive)

Question: What about the GI50 [22] of the same compound?
Answer: 17.3 µM (inactive)

Question: And the GI50 [23]?
Answer: 2.24 µM (inactive)

Question: What about the GI50 [24] of the same compound?
Answer: 2.3 µM (inactive)

Question: What about the GI50 [25] of the same compound?
Answer: 22.3 µM (inactive)

Question: What about the GI50 [26] of the same compound?
Answer: 14.1 µM (inactive)

Question: What about the GI50 [27] of the same compound?
Answer: 12.9 µM (inactive)

Question: And the GI50 [28]?
Answer: 8.69 µM (inactive)

Question: What about the GI50 [29] of the same compound?
Answer: 10.4 µM (inactive)

Question: And the GI50 [30]?
Answer: 14.1 µM (inactive)

Question: What about the GI50 [31] of the same compound?
Answer: 6.4 µM (inactive)

Question: What about the GI50 [32] of the same compound?
Answer: 13 µM

Question: And the GI50 [33]?
Answer: 8.13 µM (inactive)

Question: And the GI50 [34]?
Answer: 16.6 µM (inactive)

Question: What about the GI50 [35] of the same compound?
Answer: 10.5 µM (inactive)

Question: And the GI50 [36]?
Answer: 16.9 µM (inactive)

Question: What about the GI50 [37] of the same compound?
Answer: 9.08 µM (inactive)

Question: What about the GI50 [38] of the same compound?
Answer: 15.6 µM (inactive)

Question: What about the GI50 [39] of the same compound?
Answer: 12.5 µM (inactive)

Question: What about the GI50 [40] of the same compound?
Answer: 12.1 µM (inactive)

Question: What about the GI50 [41] of the same compound?
Answer: 15.6 µM (inactive)

Question: And the GI50 [42]?
Answer: 6.1 µM (inactive)

Question: And the GI50 [43]?
Answer: 19 µM (inactive)

Question: And the GI50 [44]?
Answer: 6.82 µM (inactive)

Question: And the GI50 [45]?
Answer: 15.9 µM (inactive)

Question: And the GI50 [46]?
Answer: 13.3 µM (inactive)

Question: And the GI50 [47]?
Answer: 3.6 µM (inactive)

Question: And the GI50 [48]?
Answer: 11.2 µM (inactive)

Question: What about the GI50 [49] of the same compound?
Answer: 15.9 µM (inactive)

Question: What about the GI50 [50] of the same compound?
Answer: 4 µM (inactive)

Question: What about the GI50 [51] of the same compound?
Answer: 5.01 µM (inactive)

Question: What about the GI50 [52] of the same compound?
Answer: 15.8 µM (inactive)

Question: What about the GI50 [53] of the same compound?
Answer: 19.9 µM (inactive)

Question: What about the GI50 [54] of the same compound?
Answer: 12.4 µM (inactive)

Question: And the GI50 [55]?
Answer: 15 µM (inactive)

Question: And the GI50 [56]?
Answer: 9.27 µM (inactive)

Question: And the GI50 [57]?
Answer: 3.41 µM (inactive)

Question: And the GI50 [58]?
Answer: 4.45 µM (inactive)

Question: What about the GI50 [59] of the same compound?
Answer: 7.28 µM (inactive)

Question: For `CN(C)C(=S)SSC(=S)N(C)C` [THIRAM], which GI50 [5] is on record?
Answer: > 75.5 µM (inactive)

Question: What about the GI50 [60] of the same compound?
Answer: 20.8 µM (inactive) and 17.7 µM (inactive)

Question: What about the GI50 [61] of the same compound?
Answer: 47.1 µM (inactive) and 37.7 µM (inactive)

Question: And the GI50 [11]?
Answer: 36.4 µM (inactive) and 24.3 µM (inactive)

Question: What about the GI50 [14] of the same compound?
Answer: 2.59 µM (inactive)

Question: And the GI50 [15]?
Answer: 45.8 µM (inactive) and > 60 µM (inactive)

Question: And the GI50 [17]?
Answer: 21 µM (inactive) and 28.6 µM (inactive)

Question: And the GI50 [18]?
Answer: > 100 µM (inactive)

Question: And the GI50 [19]?
Answer: 16.7 µM (inactive) and 29.3 µM (inactive)

Question: And the GI50 [20]?
Answer: 1.98 µM (inactive)

Question: And the GI50 [21]?
Answer: 13 µM (inactive) and 23.8 µM (inactive)

Question: What about the GI50 [24] of the same compound?
Answer: 28.1 µM (inactive) and 36 µM (inactive)

Question: What about the GI50 [62] of the same compound?
Answer: 26.2 µM (inactive) and 18.3 µM (inactive)

Question: And the GI50 [28]?
Answer: 0.124 µM (active)

Question: And the GI50 [29]?
Answer: 17.3 µM (inactive) and 20.6 µM (inactive)

Question: And the GI50 [63]?
Answer: 17.2 µM (inactive)

Question: And the GI50 [34]?
Answer: 1.64 µM (inactive)

Question: What about the GI50 [35] of the same compound?
Answer: > 57.8 µM (inactive) and 54.6 µM (inactive)

Question: What about the GI50 [41] of the same compound?
Answer: 20.2 µM (inactive) and 12.4 µM (inactive)

Question: And the GI50 [44]?
Answer: 3.52 µM (inactive) and 2.3 µM (inactive)

Question: What about the GI50 [46] of the same compound?
Answer: 4.48 µM (inactive)

Question: And the GI50 [64]?
Answer: 17.2 µM (inactive) and 14.2 µM (inactive)

Question: And the GI50 [48]?
Answer: 0.581 µM (active)

Question: What about the GI50 [50] of the same compound?
Answer: 14.3 µM (inactive) and 17.9 µM (inactive)

Question: What about the GI50 [53] of the same compound?
Answer: > 67.9 µM (inactive)

Question: And the GI50 [65]?
Answer: 19.1 µM (inactive) and 14.1 µM (inactive)

Question: And the GI50 [66]?
Answer: 16.8 µM (inactive) and 20.2 µM (inactive)

Question: And the GI50 [55]?
Answer: > 46.5 µM (inactive) and 31.9 µM (inactive)

Question: What about the GI50 [56] of the same compound?
Answer: 0.285 µM (active)

Question: And the GI50 [59]?
Answer: 42.2 µM (inactive)
